From patent US10035792B2, “Resorcinol derivative as HSP90 inhibitor” (priority 2015, dated 2018)

How the values were obtained:
HSP90α = HSP90α (Homo sapiens (Human), UniProt P07900); experiment: Fluorescence polarization (FP) HSP90-alpha target binding assay; conditions: fluorescence polarization; read-out: Target binding ability HSP90α FP IC50
Source text: In the present invention, the method of fluorescence polarization (FP) was used to establish the screening platform for HSP90-alpha inhibitors. The principle based on is to calculate fluorescence polarization values in horizontal and vertical directions by detecting molecular weight changes before and after interaction of fluorescent labeled small molecules with other molecules, in use for correlation analysis. If binding equilibria between the fluorescent labeled small molecule and the macromolecule is established, it moves slowly when excited, and the fluorescence polarization values measured will increase. If the fluorescent labeled small molecule binding to the macromolecule is replaced with other ligands, its rotational or inversional speed in free state will become faster, the emitted light would be depolarized with respect to the exciting light plane, and thus the polarized light value measured will decrease, so as to calculate the polarization value of the sample (the unit of polarization value is mP).
The fluorescent labeled small molecule used in the present invention was VER-00051001 (synthesized by reference to the synthetic method described in JMC, 2008, 51, 196-218). The reaction was carried out in a 384-well black plate, using the reaction hydrophobic protein HFB buffer: 100 mM Tris.Cl pH 7.4, 20 mM KCl, 6 mM MgCl2, 5 μg/mL BSA, 25 nM full-length Hsp90U, 10 nM VER-51001. The volume of the reaction system was […], containing 5 nM GM-BODIPY (geldanamycin), 30 nM HSP90 and the test small molecular compound or DMSO (dimethyl sulfoxide), wherein the DMSO content was 2% o. Additional two group wells were established, wherein the wells only added with HFB buffer were used as blank controls, and the wells further added with 5 nM GM-BODIPY were used as negative controls. The reaction was carried out at 4° C. for 12-16 hours. The mP value was measured by Biotek microplate reader at 485 nm of excitation wavelength and 535 nm of emission wavelength. The inhibition rate was calculated using the following equation: (Compound-free mP−Compound mP)/(Compound-free mP−negative control mP)×100%

[1] = test system: human lung cancer cell line A549; experiment: Tumor cell growth inhibition, SRB staining, A549; assay type: cell-based; conditions: A549, 72 h
Procedure: The growth inhibition assay of tumor cells was detected by sulforhodamine B (SRB) staining method. The specific steps were as follows: inoculating human colon cancer cell line HCT116 and human lung cancer cell line A549 (purchased from American Type Culture Collection, ATCC) at the logarithmic growth phase into a 96-well micro culture plate at an appropriate concentration of 4000 cells/well, 100 μL for each well; after culturing overnight, adding with the compound at different concentrations (100, 10, 1, 0.1, 0.01 μM) to react for 72 h, wherein triplicate wells were set up for each concentration, and solvent control wells with the corresponding concentration and zero wells without cells were also set up. After the completion of the reaction, the culture medium was removed from the adherent cells, the later was added with 10% (w/v) trichloroacetic acid (100 μL/well) at 4° C. to fix for 1 h, and then washed five times with distilled water. After drying at room temperature, 100 μL of SRB solution (4 mg/mL, dissolved in 1% glacial acetic acid) was added into each well, followed by incubation and staining for 15 min at room temperature. The uncombined SRB was removed by washing five times with 1% glacial acetic acid. After drying at room temperature, 100 μL of 10 mM Tris solution was added into each well, and the optical density (OD) at 515 nm was measured by a […] microplate reader. The inhibition rate of the drug to tumor cell growth was calculated according to the following equation: Inhibition rate (%)=(OD of control well-OD of drug well)/OD of control well×100%. The experiment was repeated twice.

| IC50 (HSP90α) [nM] | EC50 [1] [nM] | Compound |
| --- | --- | --- |
| 20 to 100 | < 20 | CCCN1CCc2cc(-c3c(C(=O)NCC)noc3-c3cc(C(C)C)c(O)cc3O)ccc2C1 [Example 50, 5-(2,4-dihydroxyl-5-isopropylphenyl)-N-ethyl-4-(2-propyl-1,2,3,4-tetrahydroisoquinolin-6-yl)isoxazole-3-carboxamide] |
| 20 to 100 | 20 to 100 | CCNC(=O)c1noc(-c2cc(C(C)C)c(O)cc2O)c1-c1ccc2c(c1)CCN(CC(C)C)C2 [Example 52, 5-(2,4-dihydroxyl-5-isopropylphenyl)-N-ethyl-4-(2-isobutyl-1,2,3,4-tetrahydroisoquinolin-6-yl)isoxazole-3-carboxamide] |
| 20 to 100 | > 100 | CCNC(=O)c1noc(-c2cc(C(C)C)c(O)cc2O)c1-c1ccc2c(c1)CCN(CCNC(C)=O)C2 [Example 53, 4-(2-(2-acetylaminoethyl)-1,2,3,4-tetrahydroisoquinolin-6-yl)-5-(2,4-dihydroxyl-5-isopropylphenyl)-N-ethylisoxazole-3-carboxamide] |
| 20 to 100 | > 100 | CCNC(=O)c1noc(-c2cc(C(C)C)c(O)cc2O)c1-c1ccc2c(c1)CCN(C(=O)CCN1CCOCC1)C2 [Example 58, 5-(2,4-dihydroxyl-5-isopropylphenyl)-N-ethyl-4-(2-(3-morpholino-4-yl-propionyl)-1,2,3,4-tetrahydroisoquinolin-6-yl)isoxazole-3-carboxamide] |
| < 20 | < 20 | CC(C)NC(=O)c1onc(-c2cc(C(C)C)c(O)cc2O)c1-c1ccc2c(c1)CCN(C)C2 [Example 63, 3-(2,4-dihydroxyl-5-isopropylphenyl)-N-isopropyl-4-(2-methyl-1,2,3,4-tetrahydroisoquinolin-6-yl)isoxazole-5-carboxamide] |
| < 20 | < 20 | CC(C)c1cc(-c2noc(C(=O)NCCF)c2-c2ccc3c(c2)CCN(C)C3)c(O)cc1O [Example 65, 3-(2,4-dihydroxyl-5-isopropylphenyl)-N-(2-fluoroethyl)-4-(2-methyl-1,2,3,4-tetrahydroisoquinolin-6-yl)isoxazole-5-carboxamide] |
| < 20 | < 20 | CC(C)c1cc(-c2noc(C(=O)NCCCO)c2-c2ccc3c(c2)CCN(C)C3)c(O)cc1O [Example 66, 3-(2,4-dihydroxyl-5-isopropylphenyl)-N-(3-hydroxylpropyl)-4-(2-methyl-1,2,3,4-tetrahydroisoquinolin-6-yl)isoxazole-5-carboxamide] |
| < 20 | < 20 | CCNC(=O)c1onc(-c2cc(C(C)C)c(O)cc2O)c1-c1ccc2c(c1)CCN(C(C)C)C2 [Example 68, 3-(2,4-dihydroxyl-5-isopropylphenyl)-N-ethyl-4-(2-isopropyl-1,2,3,4-tetrahydroisoquinolin-6-yl)isoxazole-5-carboxamide] |
| < 20 | < 20 | CCNC(=O)c1onc(-c2cc(C(C)C)c(O)cc2O)c1-c1ccc2c(c1)CCN(CCO)C2 [Example 69] |
| < 20 | 20 to 100 | CCNC(=O)c1onc(-c2cc(C(C)C)c(O)cc2O)c1-c1ccc2c(c1)CCN(CCOC)C2 [Example 70] |

Second part, the compound before the results:

| Compound | IC50 (HSP90α) [nM] | EC50 [1] [nM] |
| --- | --- | --- |
| CCNC(=O)c1noc(-c2cc(C(C)C)c(O)cc2O)c1-c1ccc2c(c1)CCN(CCS(=O)(=O)CC)C2 [Example 48, 5-(2,4-dihydroxyl-5-isopropylphenyl)-N-ethyl-4-(2-(2-ethylsulfonyl)ethyl-1,2,3,4-tetrahydroisoquinolin-6-yl)isoxazole-3-carboxamide] | 20 to 100 | 20 to 100 |
| CCNC(=O)c1noc(-c2cc(C(C)C)c(O)cc2O)c1-c1ccc2c(c1)CCN(CC)C2 [Example 49, 5-(2,4-dihydroxyl-5-isopropylphenyl)-N-ethyl-4-(2-ethyl-1,2,3,4-tetrahydroisoquinolin-6-yl)isoxazole-3-carboxamide] | < 20 | 20 to 100 |
| CCNC(=O)c1noc(-c2cc(C(C)C)c(O)cc2O)c1-c1ccc2c(c1)CCN(C(C)C)C2 [Example 51, 5-(2,4-dihydroxyl-5-isopropylphenyl)-N-ethyl-4-(2-isopropyl-1,2,3,4-tetrahydroisoquinolin-6-yl)isoxazole-3-carboxamide] | 20 to 100 | 20 to 100 |
| CCNC(=O)c1noc(-c2cc(C(C)C)c(O)cc2O)c1-c1ccc2c(c1)CCN(CCCNC(C)=O)C2 [Example 54] | 20 to 100 | > 100 |
| CCNC(=O)c1noc(-c2cc(C(C)C)c(O)cc2O)c1-c1ccc2c(c1)CCN(CC(=O)N(C)C)C2 [Example 55, 5-(2,4-dihydroxyl-5-isopropylphenyl)-4-(2-(2-(dimethylamino)-2-oxoethyl)-1,2,3,4-tetrahydroisoquinolin-6-yl)-N-ethylisoxazole-3-carboxamide] | 20 to 100 | > 100 |
| CCNC(=O)c1noc(-c2cc(C(C)C)c(O)cc2O)c1-c1ccc2c(c1)CCN(CCC(=O)N(C)C)C2 [Example 56] | 20 to 100 | > 100 |
| CCNC(=O)c1noc(-c2cc(C(C)C)c(O)cc2O)c1-c1ccc2c(c1)CCN(C(=O)CCN(C)C)C2 [Example 57, 5-(2,4-dihydroxyl-5-isopropylphenyl)-4-(2-(3-(dimethylamino)propionyl)-1,2,3,4-tetrahydroisoquinolin-6-yl)-N-ethylisoxazole-3-carboxamide] | 20 to 100 | > 100 |
| CCNC(=O)c1noc(-c2cc(C(C)C)c(O)cc2O)c1-c1ccc2c(c1)CCN(C(=O)CN(C)C)C2 [Example 59, 5-(2,4-dihydroxyl-5-isopropylphenyl)-4-(2-(2-(dimethylamino)acetyl)-1,2,3,4-tetrahydroisoquinolin-6-yl)-N-ethylisoxazole-3-carboxamide] | 20 to 100 | > 100 |
| CCNC(=O)c1noc(-c2cc(C(C)C)c(O)cc2O)c1-c1ccc2c(c1)CCN(C(=O)CN1CCOCC1)C2 [Example 60, 5-(2,4-dihydroxyl-5-isopropylphenyl)-N-ethyl-4-(2-(2-morpholino-4-yl-acetyl)-1,2,3,4-tetrahydroisoquinolin-6-yl)isoxazole-3-carboxamide] | 20 to 100 | > 100 |
| CC(C)c1cc(-c2noc(C(N)=O)c2-c2ccc3c(c2)CCN(C)C3)c(O)cc1O [Example 61, 3-(2,4-dihydroxyl-5-isopropylphenyl)-4-(2-methyl-1,2,3,4-tetrahydroisoquinolin-6-yl)isoxazol-5-carboxamide] | < 20 | < 20 |
| CNC(=O)c1onc(-c2cc(C(C)C)c(O)cc2O)c1-c1ccc2c(c1)CCN(C)C2 [Example 62, 3-(2,4-dihydroxyl-5-isopropylphenyl)-N-methyl-4-(2-methyl-1,2,3,4-tetrahydroisoquinolin-6-yl)isoxazole-5-carboxamide] | < 20 | < 20 |
| CC(C)c1cc(-c2noc(C(=O)NCCO)c2-c2ccc3c(c2)CCN(C)C3)c(O)cc1O [Example 64, 3-(2,4-dihydroxyl-5-isopropylphenyl)-N-(2-hydroxylethyl)-4-(2-methyl-1,2,3,4-tetrahydroisoquinolin-6-yl)isoxazole-5-carboxamide] | < 20 | < 20 |
| CCNC(=O)c1onc(-c2cc(C(C)C)c(O)cc2O)c1-c1ccc2c(c1)CCN(CCF)C2 [Example 71] | < 20 | < 20 |
